This note sets out measurements from patent US20260250250A1, “3-(SULPHONYL OR SULFONIMIDOYL)PROP-2-EN-1-YL]-2-OXO-1,2-DIHYDROPYRIDINE-3-CARBOXAMIDE DERIVATIVES” (Flinder Therapeutics B.V., priority 2022, published 2026).

A value given as a limit tells only on which side of the number the result lay.

One assay concerns NF-κB signaling pathway. Nature of the assay: Cell-based dual luciferase NF-κB reporter assay (HEK293 cells, TNF stimulated). The conditions noted are these: Homo sapiens, HEK293. A digest of the protocol:
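HEK293 cells transfected with Firefly luciferase and NF-κB-response-element NanoLuc plasmids; compounds at 100–0.005 µM in 1% DMSO. Cells stimulated with 2.5 ng/mL TNF 30 min after compound addition. Firefly and NanoLuc activities read after 6 h by Nano-Glo dual-luciferase detection.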

Assay [1] has as its system bladder carcinoma RT4 cell line. The assay can be described thus: TNF-α-induced cytotoxicity assay (CellTiter-Glo viability). The note with it: Homo sapiens, RT-4, 72 h. Type of assay: cell-based. The gist of the method:
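RT4 bladder carcinoma cells, 1000 per well, stimulated with 1.25 ng/mL TNFα together with compound for 72 h at 37° C., 5% CO2. Viability read by CellTiter-Glo luminescence, proportional to cellular ATP, as a measure of HOIP-dependent cytotoxicity.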

Assay [2] has as its target T1, human E3 ubiquitin-protein ligase RNF31 (HOIP) (Homo sapiens, UniProt Q96EP0).
T1 sequence (Q96EP0 695-1072 limits assumed): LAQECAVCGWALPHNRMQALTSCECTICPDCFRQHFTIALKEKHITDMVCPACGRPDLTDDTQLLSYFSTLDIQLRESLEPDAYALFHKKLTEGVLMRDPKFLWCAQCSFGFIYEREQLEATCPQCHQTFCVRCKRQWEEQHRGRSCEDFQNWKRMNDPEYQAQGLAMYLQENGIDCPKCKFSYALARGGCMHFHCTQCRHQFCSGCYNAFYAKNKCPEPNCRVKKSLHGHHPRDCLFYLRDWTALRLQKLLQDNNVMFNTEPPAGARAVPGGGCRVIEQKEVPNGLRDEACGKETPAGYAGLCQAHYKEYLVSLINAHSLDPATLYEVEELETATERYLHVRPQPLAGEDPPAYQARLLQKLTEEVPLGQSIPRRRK
The assay can be described thus: Cell-free HTRF-based HOIP inhibition assay. Type of assay: biochemical. A digest of the protocol: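 HTRF read (ex 337 nm; em 665 and 620 nm) after a 2.5 h, 25° C. ubiquitination step started by adding E2 plus substrates. Before that, E. coli-expressed human HOIP fragment and E1 were incubated 1 h at 25° C. with compound at 100-0.005 μM, 1% DMSO final.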

With `O=C(NC/C=C/S(=O)(=O)c1ccccc1)c1cc2c([nH]c1=O)CCN(C(=O)OC1CCCCC1)C2` [Example 90, cyclohexyl 3-{[(2E)-3-(benzenesulfonyl)prop-2-en-1-yl]carbamoyl}-2-oxo-1,2,5,6,7,8-hexahydro-1,6-naphthyridine-6-carboxylate], the results for the IC50 (in the assay with NF-κB signaling pathway; in assay [1]; in assay [2]) were no more than 1000 nM, no more than 1000 nM and no more than 100 nM, respectively.
As for `CC(OC(=O)N1CCc2[nH]c(=O)c(C(=O)NC/C=C/S(=O)(=O)c3ccccc3)cc2C1)c1c(F)cccc1F` (stereo not drawn) [Example 91, 1-(2,6-difluorophenyl)ethyl 3-{[(2E)-3-(benzenesulfonyl)prop-2-en-1-yl]carbamoyl}-2-oxo-1,2,5,6,7,8-hexahydro-1,6-naphthyridine-6-carboxylate], the half-maximal inhibitory concentration (IC50) (in the assay with NF-κB signaling pathway; in assay [1]; in assay [2]) was no more than 1000 nM throughout.
Turning to `CC(=O)N1CCC(OC(=O)N2CCc3[nH]c(=O)c(C(=O)NC/C=C/S(=O)(=O)c4ccc(Cl)cc4)cc3C2)CC1` [Example 92, 1-acetylpiperidin-4-vi 3-{[(2E)-3-(4-chlorobenzenesulfonyl)prop-2-en-1-yl]carbamoyl}-2-oxo-1,2,5,6,7,8-hexahydro-1,6-naphthyridine-6-carboxylate], the IC50 in the assay with NF-κB signaling pathway was no more than 10000 nM; in assay [1], no more than 100000 nM; in assay [2], no more than 100 nM.
Regarding `O=C(NC/C=C/S(=O)(=O)c1ccc(Cl)cc1)c1cc2c([nH]c1=O)CCN(C(=O)OCCF)C2` [Example 93, 2-fluoroethyl 3-{[(2E)-3-(4-chlorobenzenesulfonyl)prop-2-en-1-yl]carbamoyl}-2-oxo-1,2,5,6,7,8-hexahydro-1,6-naphthyridine-6-carboxylate], the concentration for half-maximal inhibition (IC50) with NF-κB signaling pathway was no more than 1000 nM; in assay [1] it was no more than 1000 nM; in assay [2], no more than 100 nM.
As for `COCC(C)OC(=O)N1CCc2[nH]c(=O)c(C(=O)NC/C=C/S(=O)(=O)c3ccc(Cl)cc3)cc2C1` (stereo not drawn) [Example 94, 1-methoxypropan-2-yl 3-{[(2E)-3-(4-chlorobenzenesulfonyl)prop-2-en-1-yl]carbamoyl}-2-oxo-1,2,5,6,7,8-hexahydro-1,6-naphthyridine-6-carboxylate], the values for the IC50 (in the assay with NF-κB signaling pathway; in assay [1]; in assay [2]) were no more than 1000 nM, no more than 10000 nM and no more than 100 nM, respectively.
Regarding `O=C(NC/C=C/S(=O)(=O)c1ccc(Cl)cn1)c1cc2c([nH]c1=O)CCN(C(=O)OCC1CC1)C2` [Example 95, cyclopropylmethyl 3-{[(2E)-3-[(5-chloropyridin-2-yl)sulfonyl]prop-2-en-1-yl]carbamoyl}-2-oxo-1,2,5,6,7,8-hexahydro-1,6-naphthyridine-6-carboxylate], the IC50 in the assay with NF-κB signaling pathway is no more than 1000 nM; in assay [1], no more than 10000 nM; in assay [2], no more than 100 nM.
As to `O=C(NC/C=C/S(=O)(=O)c1ccc(Cl)cc1)c1cc2c([nH]c1=O)CCN(C(=O)OCC(F)F)C2` [Example 96, 2,2-difluoroethyl 3-{[(2E)-3-(4-chlorobenzenesulfonyl)prop-2-en-1-yl]carbamoyl}-2-oxo-1,2,5,6,7,8-hexahydro-1,6-naphthyridine-6-carboxylate], the figures for the IC50 (in the assay with NF-κB signaling pathway; in assay [1]; in assay [2]) were no more than 1000 nM, no more than 10000 nM and no more than 1000 nM, respectively.
In the case of `O=C(NC/C=C/S(=O)(=O)c1ccc(Cl)cc1)c1cc2c([nH]c1=O)CCN(C(=O)OCC(F)(F)F)C2` [Example 97, 2,2,2-trifluoroethyl 3-{[(2E)-3-(4-chlorobenzenesulfonyl)prop-2-en-1-yl]carbamoyl}-2-oxo-1,2,5,6,7,8-hexahydro-1,6-naphthyridine-6-carboxylate], the 50% inhibitory concentration (IC50) was no more than 1000 nM with NF-κB signaling pathway, no more than 10000 nM in assay [1] and no more than 100 nM in assay [2].
Take `COc1ccc(S(=N)(=O)/C=C/CNC(=O)c2cc3c([nH]c2=O)CCN(C(=O)OCC2CC2)C3)cc1F` (stereo not drawn) [Example 98, cyclopropylmethyl 3-{[(2E)-3-[(3-fluoro-4-methoxyphenyl)(imino)oxo-λ^6-sulfanyl]prop-2-en-1-yl]carbamoyl}-2-oxo-1,2,5,6,7,8-hexahydro-1,6-naphthyridine-6-carboxylate]: the IC50 in the assay with NF-κB signaling pathway is no more than 1000 nM; in assay [1] it was no more than 10000 nM; in assay [2] it was no more than 100 nM.
Take `CC(C)(C)NC(=O)N1CCc2[nH]c(=O)c(C(=O)NC/C=C/S(=O)(=O)c3ccc(Cl)cc3)cc2C1` [Example 99, N6-tert-butyl-N3-[(2E)-3-(4-chlorobenzenesulfonyl)prop-2-en-1-yl]-2-oxo-1,2,5,6,7,8-hexahydro-1,6-naphthyridine-3,6-dicarboxamide]: the half-maximal inhibitory concentration (IC50) with NF-κB signaling pathway is no more than 10000 nM; in assay [1], no more than 10000 nM; in assay [2] it was no more than 1000 nM.
For `O=C(NC/C=C/S(=O)(=O)c1ccc(Cl)cc1)c1cc2c([nH]c1=O)CCN(C(=O)NCC1CC1)C2` [Example 100, N3-[(2E)-3-(4-chlorobenzenesulfonyl)prop-2-en-1-yl]-N6-(cyclopropylmethyl)-2-oxo-1,2,5,6,7,8-hexahydro-1,6-naphthyridine-3,6-dicarboxamide], the IC50 is no more than 100000 nM with NF-κB signaling pathway, no more than 100000 nM in assay [1] and no more than 1000 nM in assay [2].
On to `O=C(NC/C=C/S(=O)(=O)c1ccc(Cl)cc1)c1cc2c([nH]c1=O)CCN(C(=O)NC1CC1)C2` [Example 101, N3-[(2E)-3-(4-chlorobenzenesulfonyl)prop-2-en-1-yl]-N6-cyclopropyl-2-oxo-1,2,5,6,7,8-hexahydro-1,6-naphthyridine-3,6-dicarboxamide], for which the figures for the 50% inhibitory concentration (IC50) (in the assay with NF-κB signaling pathway; in assay [1]; in assay [2]) were no more than 100000 nM, no more than 100000 nM and no more than 1000 nM, respectively.
On to `COCCS(=O)(=O)N1CCc2[nH]c(=O)c(C(=O)NC/C=C/S(=O)(=O)c3ccccc3)cc2C1` [Example 103, N-[(2E)-3-(benzenesulfonyl)prop-2-en-1-yl]-6-(2-methoxyethanesulfonyl)-2-oxo-1,2,5,6,7,8-hexahydro-1,6-naphthyridine-3-carboxamide], for which the half-maximal inhibitory concentration (IC50) with NF-κB signaling pathway is no more than 100000 nM; in assay [1], no more than 100000 nM; in assay [2], no more than 1000 nM.
As for `O=C(NC/C=C/S(=O)(=O)c1ccccc1)c1cc2c([nH]c1=O)CCN(Cc1cccnc1)C2` [Example 104, N-[(2E)-3-(benzenesulfonyl)prop-2-en-1-yl]-2-oxo-6-[(pyridin-3-yl)methyl]-1,2,5,6,7,8-hexahydro-1,6-naphthyridine-3-carboxamide], the IC50 in the assay on NF-κB signaling pathway is no more than 10000 nM; in assay [1] it was no more than 10000 nM; in assay [2], no more than 1000 nM.
For the compound `CO[C@H]1CC[C@H](C(=O)N2CCc3[nH]c(=O)c(C(=O)NC/C=C/S(=O)(=O)c4ccccc4)cc3C2)CC1` [Example 107, N-[(2E)-3-(benzenesulfonyl)prop-2-en-1-yl]-2-oxo-6-[(1r,4r)-4-methoxycyclohexanecarbonyl]-1,2,5,6,7,8-hexahydro-1,6-naphthyridine-3-carboxamide], the half-maximal inhibitory concentration (IC50) is no more than 100000 nM in the assay with NF-κB signaling pathway, no more than 100000 nM in assay [1] and no more than 1000 nM in assay [2].
On to `O=C(NC/C=C/S(=O)(=O)c1ccccc1)c1cc2c([nH]c1=O)CCN(C(=O)C1CC1)C2` [Example 109, N-[(2E)-3-(benzenesulfonyl)prop-2-en-1-yl]-6-cyclopropanecarbonyl-2-oxo-1,2,5,6,7,8-hexahydro-1,6-naphthyridine-3-carboxamide], for which the half-inhibitory concentration (IC50) in the assay with NF-κB signaling pathway was no more than 100000 nM; in assay [1], no more than 100000 nM; in assay [2], no more than 1000 nM.
Take `O=C(NC/C=C/S(=O)(=O)c1ccccc1)c1cc2c([nH]c1=O)CCN(C(=O)C13CCC(CC1)C3)C2` [Example 110, N-[(2E)-3-(benzenesulfonyl)prop-2-en-1-yl]-6-{bicyclo[2.2.1]heptane-1-carbonyl}-2-oxo-1,2,5,6,7,8-hexahydro-1,6-naphthyridine-3-carboxamide]: the values for the 50% inhibitory concentration (IC50) (with NF-κB signaling pathway; in assay [1]; in assay [2]) were no more than 10000 nM, no more than 10000 nM and no more than 1000 nM, respectively.
Consider `O=C(NC/C=C/S(=O)(=O)c1ccccc1)c1cc2c([nH]c1=O)CCN(C(=O)c1cnn(-c3ccccc3)n1)C2` [Example 112, N-[(2E)-3-(benzenesulfonyl)prop-2-en-1-yl]-2-oxo-6-(2-phenyl-2H-1,2,3-triazole-4-carbonyl)-1,2,5,6,7,8-hexahydro-1,6-naphthyridine-3-carboxamide], for which the IC50 in the assay on NF-κB signaling pathway is no more than 10000 nM; in assay [1], no more than 10000 nM; in assay [2], no more than 1000 nM.
Take `O=C(NC/C=C/S(=O)(=O)c1ccccc1)c1cc2c([nH]c1=O)CCN(C(=O)C1CCOC1)C2` (stereo not drawn) [Example 113, N-[(2E)-3-(benzenesulfonyl)prop-2-en-1-yl]-2-oxo-6-(oxolane-3-carbonyl)-1,2,5,6,7,8-hexahydro-1,6-naphthyridine-3-carboxamide]: the half-maximal inhibitory concentration (IC50) was no more than 100000 nM in the assay on NF-κB signaling pathway, no more than 100000 nM in assay [1] and no more than 1000 nM in assay [2].
